Reference: the supplement of paper PMC10883282
Structures can show the parent of a compound that is named as a salt. ± gives the standard deviation of the averaged measurements.

Test system: MES-SA
Assay: relative viability vs DMSO control (72 h) (fraction); higher = more viable cells
Summary of the method: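 Percent growth from ATPLite readings, averaged over up to triplicate wells, was used as relative viability. Sarcoma cell lines were seeded into 384-well plates for 80–90% confluence, dosed after 24 h, and kept 72 h at 37 °C, 5% CO2. Data were rescaled to a range where 1 is full and 0 is none.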

Compound | relative viability (0.00017 µM) | relative viability (0.00051 µM) | relative viability (0.00152 µM) | relative viability (0.00457 µM) | relative viability (0.01372 µM) | relative viability (0.04115 µM) | relative viability (0.1235 µM) | relative viability (0.3704 µM) | relative viability (1.111 µM) | relative viability (3.333 µM) | relative viability (10 µM) | relative viability (2 pM) | relative viability (5 pM) | relative viability (15 pM) | relative viability (50 pM) | relative viability (0.00014 µM) | relative viability (0.00041 µM) | relative viability (0.0012 µM) | relative viability (0.0037 µM) | relative viability (0.011 µM) | relative viability (200 fM) | relative viability (600 fM)
CCCS(=O)(=O)Nc1ccc(F)c(C(=O)c2c[nH]c3ncc(-c4ccc(Cl)cc4)cc23)c1F [Vemurafenib] | 0.941 ± 0.024 | 0.951 ± 0.025 | 0.957 ± 0.013 | 0.957 ± 0.026 | 0.955 ± 0.031 | 0.953 ± 0.018 | 0.967 ± 0.028 | 0.995 ± 0.022 | 0.9726 ± 0.0075 | 0.782 ± 0.02 | 0.51 ± 0.01 |  |  |  |  |  |  |  |  |  |  | 
COCc1c(-c2cc3cc(C)cc(OC)c3s2)c2c(N)ncnn2c1CN1CCNC(=O)C1 [Rogaratinib] | 0.974 ± 0.012 | 0.9554 ± 0.0066 | 0.943 ± 0.014 | 0.929 ± 0.014 | 0.939 ± 0.025 | 0.949 ± 0.046 | 0.849 ± 0.018 | 0.732 ± 0.02 | 0.664 ± 0.035 | 0.565 ± 0.012 | 0.389 ± 0.019 |  |  |  |  |  |  |  |  |  |  | 
C=CC(=O)N1CCC([C@@H]2CCNc3c(C(N)=O)c(-c4ccc(Oc5ccccc5)cc4)nn32)CC1 [Zanubrutinib] | 0.9598 ± 0.0038 | 0.965 ± 0.013 | 0.959 ± 0.026 | 0.983 ± 0.033 | 0.918 ± 0.031 | 0.95 ± 0.037 | 0.92 ± 0.041 | 0.965 ± 0.034 | 0.955 ± 0.018 | 0.881 ± 0.041 | 0.742 ± 0.034 |  |  |  |  |  |  |  |  |  |  | 
COc1cccc2c1C(=O)c1c(O)c3c(c(O)c1C2=O)C[C@@](O)(C(=O)CO)C[C@@H]3O[C@H]1C[C@H](N)[C@H](O)[C@H](C)O1 [Doxorubicin Hydrochloride] | 0.975 ± 0.028 | 0.937 ± 0.042 | 0.934 ± 0.024 | 0.89 ± 0.024 | 0.66 ± 0.036 | 0.39 ± 0.0073 | 0.313 ± 0.01 | 0.201 ± 0.0045 | 0.0143 ± 0.0029 | 0.0402 ± 0.002 | 0.03487 ± 0.00029 |  |  |  |  |  |  |  |  |  |  | 
CC(C)NC(=O)C1CCC(n2c(NC(=O)c3ccc(F)cc3)nc3ccc(CN4CCC(C(C)(C)O)CC4)cc32)CC1 (stereo not drawn) [Belizatinib] | 0.942 ± 0.023 | 0.92 ± 0.026 | 0.934 ± 0.012 | 0.957 ± 0.023 | 0.932 ± 0.018 | 0.9451 ± 0.0052 | 0.9316 ± 0.0039 | 0.934 ± 0.037 | 0.824 ± 0.022 | 0.523 ± 0.024 | 0.148 ± 0.016 |  |  |  |  |  |  |  |  |  |  | 
COc1cc2/c(=N/c3ccc(Br)cc3F)nc[nH]c2cc1OCC1CCN(C)CC1 [Vandetanib] | 0.907 ± 0.02 | 0.925 ± 0.033 | 0.9 ± 0.013 | 0.932 ± 0.041 | 0.909 ± 0.053 | 0.907 ± 0.054 | 0.926 ± 0.022 | 0.909 ± 0.035 | 0.804 ± 0.029 | 0.6028 ± 0.0021 | 0.127 ± 0.0064 |  |  |  |  |  |  |  |  |  |  | 
C[C@@H]1CCN(C(=O)CC#N)C[C@@H]1N(C)c1ncnc2[nH]ccc12 [Tofacitinib] | 0.985 ± 0.035 | 0.955 ± 0.064 | 0.96 ± 0.043 | 0.963 ± 0.05 | 0.966 ± 0.033 | 0.976 ± 0.025 | 0.974 ± 0.031 | 0.953 ± 0.028 | 0.952 ± 0.056 | 0.927 ± 0.042 | 0.873 ± 0.049 |  |  |  |  |  |  |  |  |  |  | 
Cn1cnc2c(F)c(Nc3ccc(Br)cc3F)c(C(=O)NOCCO)cc21 [Binimetinib] | 0.927 ± 0.027 | 0.9232 ± 0.0083 | 0.927 ± 0.017 | 0.894 ± 0.042 | 0.892 ± 0.024 | 0.84 ± 0.025 | 0.793 ± 0.02 | 0.7569 ± 0.0022 | 0.782 ± 0.025 | 0.741 ± 0.037 | 0.735 ± 0.059 |  |  |  |  |  |  |  |  |  |  | 
Cc1nc(-c2cn3c(n2)-c2ccc(-c4cnn(C(C)(C)C(N)=O)c4)cc2OCC3)n(C(C)C)n1 [Taselisib] | 0.901 ± 0.028 | 0.9023 ± 0.004 | 0.887 ± 0.033 | 0.858 ± 0.021 | 0.797 ± 0.035 | 0.692 ± 0.01 | 0.504 ± 0.015 | 0.386 ± 0.014 | 0.299 ± 0.0098 | 0.214 ± 0.0027 | 0.146 ± 0.0072 |  |  |  |  |  |  |  |  |  |  | 
Nc1cc(C(F)(F)F)c(-c2cc(N3CCOCC3)nc(N3CCOCC3)n2)cn1 [Buparlisib] | 0.897 ± 0.012 | 0.902 ± 0.0092 | 0.895 ± 0.011 | 0.932 ± 0.022 | 0.907 ± 0.023 | 0.872 ± 0.022 | 0.811 ± 0.022 | 0.677 ± 0.025 | 0.208 ± 0.01 | 0.0825 ± 0.0014 | 0.037 ± 0.0019 |  |  |  |  |  |  |  |  |  |  | 
Cc1cnc(Nc2ccc(OCCN3CCCC3)cc2)nc1Nc1cccc(S(=O)(=O)NC(C)(C)C)c1 [Fedratinib] | 0.966 ± 0.046 | 0.959 ± 0.035 | 0.953 ± 0.026 | 0.937 ± 0.029 | 0.949 ± 0.025 | 0.907 ± 0.018 | 0.861 ± 0.018 | 0.679 ± 0.03 | 0.2659 ± 0.0019 | 0.18 ± 0.0027 | 0.028 ± 0.0026 |  |  |  |  |  |  |  |  |  |  | 
COc1cc2c(Oc3ccc4[nH]c(C)cc4c3F)ncnc2cc1OCCCN1CCCC1 [Cediranib] | 0.944 ± 0.036 | 0.934 ± 0.065 | 0.949 ± 0.041 | 0.929 ± 0.037 | 0.967 ± 0.012 | 0.95 ± 0.02 | 0.9503 ± 0.0085 | 0.966 ± 0.029 | 0.774 ± 0.037 | 0.619 ± 0.02 | 0.257 ± 0.023 |  |  |  |  |  |  |  |  |  |  | 
CC(=O)Nc1cccc(-n2c(=O)n(C3CC3)c(=O)c3c(Nc4ccc(I)cc4F)n(C)c(=O)c(C)c32)c1 [Trametinib] | 0.968 ± 0.022 | 0.965 ± 0.012 | 0.929 ± 0.017 | 0.873 ± 0.029 | 0.831 ± 0.015 | 0.78 ± 0.011 | 0.76 ± 0.015 | 0.736 ± 0.034 | 0.683 ± 0.032 | 0.701 ± 0.017 | 0.6906 ± 0.006 |  |  |  |  |  |  |  |  |  |  | 
CC(C)N1CCN(Cc2cnc(-c3cc(-c4cccc5[nH]ccc45)cc4[nH]ncc34)o2)CC1 [Nemiralisib] | 0.967 ± 0.032 | 0.961 ± 0.022 | 0.953 ± 0.05 | 0.958 ± 0.05 | 0.977 ± 0.033 | 0.926 ± 0.039 | 0.979 ± 0.047 | 0.964 ± 0.043 | 0.911 ± 0.024 | 0.764 ± 0.028 | 0.486 ± 0.027 |  |  |  |  |  |  |  |  |  |  | 
Cc1cc(Nc2ncnc3ccc(NC4=NC(C)(C)CO4)cc23)ccc1Oc1ccn2ncnc2c1 [Tucatinib] | 0.988 ± 0.052 | 0.9678 ± 0.005 | 0.961 ± 0.03 | 0.95 ± 0.022 | 0.948 ± 0.031 | 0.939 ± 0.035 | 0.916 ± 0.013 | 0.89 ± 0.049 | 0.857 ± 0.0086 | 0.796 ± 0.02 | 0.515 ± 0.042 |  |  |  |  |  |  |  |  |  |  | 
COc1cc2c(cc1O)CCN[C@]21CS[C@@H]2c3c(OC(C)=O)c(C)c4c(c3[C@H](COC1=O)N1[C@@H]2[C@H]2c3c(cc(C)c(OC)c3O)C[C@@H]([C@@H]1O)N2C)OCO4 [Trabectedin] |  |  |  |  |  |  |  |  |  |  |  | 0.939 ± 0.021 | 0.903 ± 0.022 | 0.886 ± 0.036 | 0.819 ± 0.039 | 0.667 ± 0.049 | 0.471 ± 0.025 | 0.0389 ± 0.024 | 0.0573 ± 0.00061 | 0.0496 ± 0.003 | 0.997 ± 0.015 | 0.963 ± 0.015
C[C@@H]1COCCN1c1cc(-c2ccnn2C)c2ccnc(-c3ccn[nH]3)c2n1 | 0.952 ± 0.028 | 0.934 ± 0.025 | 0.9269 ± 0.0056 | 0.924 ± 0.028 | 0.878 ± 0.013 | 0.752 ± 0.019 | 0.489 ± 0.012 | 0.31 ± 0.022 | 0.175 ± 0.0043 | 0.122 ± 0.0046 | 0.113 ± 0.003 |  |  |  |  |  |  |  |  |  |  | 
Cc1cc(C)c(/C=C2\C(=O)Nc3ccccc32)[nH]1 [Semaxanib] | 0.908 ± 0.058 | 0.866 ± 0.02 | 0.866 ± 0.022 | 0.892 ± 0.027 | 0.882 ± 0.04 | 0.861 ± 0.061 | 0.871 ± 0.059 | 0.895 ± 0.035 | 0.889 ± 0.044 | 0.867 ± 0.041 | 0.798 ± 0.048 |  |  |  |  |  |  |  |  |  |  | 
